According to patent publication US11007270B2, “Polymer-semaxanib moiety conjugates” (Nektar Therapeutics, priority 2010, dated 2021):

Legend:
RET = RET (Homo sapiens, UniProt P07949); test: RET kinase inhibition, Caliper screening (fluorescent substrate phosphorylation, electrophoretic separation); details: for RET Fold: fold of IC50 relative to sunitinib
c-Kit = c-Kit (Homo sapiens, UniProt P10721); test: c-Kit tyrosine kinase inhibition, Caliper screening (fluorescent substrate phosphorylation, electrophoretic separation); format: biochemical; details: for IC50: averages of replicate wells; for c-Kit Fold: fold of IC50 relative to sunitinib
Chain of c-Kit (P10721 26-976): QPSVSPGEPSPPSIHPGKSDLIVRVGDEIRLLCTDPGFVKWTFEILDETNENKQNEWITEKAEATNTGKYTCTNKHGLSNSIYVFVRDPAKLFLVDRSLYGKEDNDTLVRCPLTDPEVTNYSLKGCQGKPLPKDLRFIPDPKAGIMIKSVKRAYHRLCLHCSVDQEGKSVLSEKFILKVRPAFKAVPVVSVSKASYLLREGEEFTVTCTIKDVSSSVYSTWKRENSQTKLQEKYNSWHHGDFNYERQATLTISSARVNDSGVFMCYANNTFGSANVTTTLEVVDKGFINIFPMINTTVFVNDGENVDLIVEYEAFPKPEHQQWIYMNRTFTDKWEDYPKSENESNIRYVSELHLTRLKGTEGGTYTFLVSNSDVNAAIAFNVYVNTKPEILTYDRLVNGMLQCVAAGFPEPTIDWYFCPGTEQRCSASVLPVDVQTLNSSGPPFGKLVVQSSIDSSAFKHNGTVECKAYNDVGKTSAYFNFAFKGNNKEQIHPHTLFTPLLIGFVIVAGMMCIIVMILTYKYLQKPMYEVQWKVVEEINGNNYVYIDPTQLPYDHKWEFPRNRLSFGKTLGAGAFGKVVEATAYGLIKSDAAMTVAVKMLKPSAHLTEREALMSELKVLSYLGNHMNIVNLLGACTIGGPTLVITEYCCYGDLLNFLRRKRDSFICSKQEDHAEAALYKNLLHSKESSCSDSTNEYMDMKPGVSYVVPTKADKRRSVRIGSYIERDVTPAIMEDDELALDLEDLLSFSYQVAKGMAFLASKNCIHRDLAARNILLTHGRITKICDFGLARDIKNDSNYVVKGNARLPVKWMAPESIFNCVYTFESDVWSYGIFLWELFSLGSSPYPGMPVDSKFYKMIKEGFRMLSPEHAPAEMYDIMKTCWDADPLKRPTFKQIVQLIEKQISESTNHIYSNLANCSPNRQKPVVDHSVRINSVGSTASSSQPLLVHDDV

VEGFR-2 = VEGFR-2 (Homo sapiens, UniProt P35968); test: VEGFR-2 kinase inhibition, Caliper screening (fluorescent substrate phosphorylation, electrophoretic separation); details: for VEGFR-2 Fold: fold of IC50 relative to sunitinib
Chain of VEGFR-2 (P35968 20-1356, species assumed): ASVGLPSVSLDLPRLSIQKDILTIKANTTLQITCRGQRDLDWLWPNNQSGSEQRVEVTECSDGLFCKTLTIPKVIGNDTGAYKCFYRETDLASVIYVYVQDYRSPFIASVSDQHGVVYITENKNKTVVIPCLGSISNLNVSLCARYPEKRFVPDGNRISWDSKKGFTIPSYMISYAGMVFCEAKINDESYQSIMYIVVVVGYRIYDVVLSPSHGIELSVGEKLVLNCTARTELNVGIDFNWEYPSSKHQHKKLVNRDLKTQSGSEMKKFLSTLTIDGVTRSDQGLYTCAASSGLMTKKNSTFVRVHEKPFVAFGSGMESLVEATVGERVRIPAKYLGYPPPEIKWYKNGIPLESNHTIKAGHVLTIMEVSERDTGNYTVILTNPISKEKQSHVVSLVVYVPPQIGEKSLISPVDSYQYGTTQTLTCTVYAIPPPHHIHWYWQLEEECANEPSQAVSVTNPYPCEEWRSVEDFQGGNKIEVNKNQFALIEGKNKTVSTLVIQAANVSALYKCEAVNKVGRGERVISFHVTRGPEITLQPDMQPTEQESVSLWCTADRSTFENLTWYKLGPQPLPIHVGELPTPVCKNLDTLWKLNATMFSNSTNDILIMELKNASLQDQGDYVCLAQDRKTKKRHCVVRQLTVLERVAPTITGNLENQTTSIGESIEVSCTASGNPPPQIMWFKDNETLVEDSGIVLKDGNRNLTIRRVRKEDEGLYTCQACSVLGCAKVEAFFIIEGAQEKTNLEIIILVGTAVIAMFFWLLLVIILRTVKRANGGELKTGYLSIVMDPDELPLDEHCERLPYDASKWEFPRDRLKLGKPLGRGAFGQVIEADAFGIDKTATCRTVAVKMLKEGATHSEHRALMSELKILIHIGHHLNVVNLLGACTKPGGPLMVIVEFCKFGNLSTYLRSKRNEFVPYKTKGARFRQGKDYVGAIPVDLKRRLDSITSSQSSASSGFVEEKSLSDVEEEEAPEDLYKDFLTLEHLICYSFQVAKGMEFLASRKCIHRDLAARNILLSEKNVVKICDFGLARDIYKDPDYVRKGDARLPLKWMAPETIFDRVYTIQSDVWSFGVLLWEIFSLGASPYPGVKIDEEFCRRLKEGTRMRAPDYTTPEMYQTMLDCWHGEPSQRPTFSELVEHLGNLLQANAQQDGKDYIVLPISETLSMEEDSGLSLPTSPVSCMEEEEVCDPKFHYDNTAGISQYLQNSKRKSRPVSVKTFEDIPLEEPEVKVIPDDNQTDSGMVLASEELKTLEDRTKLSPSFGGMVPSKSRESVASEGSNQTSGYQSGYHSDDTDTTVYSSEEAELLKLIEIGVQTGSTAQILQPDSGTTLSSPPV

[1] = concentration 1.0E−05 (unit not given)
[2] = concentration 1.0E−06 (unit not given)
[3] = concentration 1.0E−07 (unit not given)
[4] = concentration 1.0E−08 (unit not given)
[5] = concentration 1.0E−09 (unit not given)
[6] = concentration 1.0E−10 (unit not given)
[7] = concentration 3.0E−05 (unit not given)
[8] = concentration 3.0E−06 (unit not given)
[9] = concentration 3.0E−07 (unit not given)
[10] = concentration 3.0E−08 (unit not given)
[11] = concentration 3.0E−09 (unit not given)
[12] = concentration 3.0E−10 (unit not given)

Chain of RET (P07949 29-1114, species assumed): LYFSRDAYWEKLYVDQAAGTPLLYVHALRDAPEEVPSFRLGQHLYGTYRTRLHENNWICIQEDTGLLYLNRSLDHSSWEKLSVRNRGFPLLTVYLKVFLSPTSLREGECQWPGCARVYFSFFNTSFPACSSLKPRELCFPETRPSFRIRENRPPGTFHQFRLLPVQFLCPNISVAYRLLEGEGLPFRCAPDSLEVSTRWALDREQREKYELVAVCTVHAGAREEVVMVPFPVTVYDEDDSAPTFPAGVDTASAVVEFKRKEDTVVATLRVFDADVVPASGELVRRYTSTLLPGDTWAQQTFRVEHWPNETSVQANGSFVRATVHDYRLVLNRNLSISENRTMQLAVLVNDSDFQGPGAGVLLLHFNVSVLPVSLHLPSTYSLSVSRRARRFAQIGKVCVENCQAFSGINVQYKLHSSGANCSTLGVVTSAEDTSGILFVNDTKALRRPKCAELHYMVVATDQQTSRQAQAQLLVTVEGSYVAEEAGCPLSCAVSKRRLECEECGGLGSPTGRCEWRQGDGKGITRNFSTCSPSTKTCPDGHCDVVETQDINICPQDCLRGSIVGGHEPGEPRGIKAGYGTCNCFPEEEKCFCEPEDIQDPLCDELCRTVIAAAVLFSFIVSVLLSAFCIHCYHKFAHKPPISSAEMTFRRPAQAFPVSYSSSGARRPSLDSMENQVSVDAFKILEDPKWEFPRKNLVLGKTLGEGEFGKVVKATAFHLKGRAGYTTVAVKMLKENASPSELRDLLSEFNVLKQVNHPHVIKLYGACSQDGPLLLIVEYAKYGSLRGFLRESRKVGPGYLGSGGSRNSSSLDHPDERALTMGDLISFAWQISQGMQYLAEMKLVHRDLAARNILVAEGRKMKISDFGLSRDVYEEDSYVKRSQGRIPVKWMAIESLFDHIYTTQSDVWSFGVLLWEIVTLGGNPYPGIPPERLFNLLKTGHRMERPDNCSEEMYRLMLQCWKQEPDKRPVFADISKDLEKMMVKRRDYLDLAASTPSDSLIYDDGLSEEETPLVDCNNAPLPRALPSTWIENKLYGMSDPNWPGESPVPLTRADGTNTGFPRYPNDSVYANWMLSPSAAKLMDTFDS

SMILES: COCCOCCOCCOCCOCCOCCOCCOCCNC(=O)c1c(C)[nH]c(/C=C2\C(=O)Nc3ccc(F)cc32)c1C [mPEG8-semaxanib, (Z)-5-((5-fluoro-2-oxoindolin-3-ylidene)methyl)-2,4-dimethyl-1H-pyrrole-3-mPEG8-amide]
- IC50 (RET): 990 nM
- RET AVG % Activity at Specific Concentration (RET; [1]): 5%
- RET AVG % Activity at Specific Concentration (RET; [2]): 52%
- RET AVG % Activity at Specific Concentration (RET; [3]): 92%
- RET AVG % Activity at Specific Concentration (RET; [4]): 100%
- RET AVG % Activity at Specific Concentration (RET; [5]): 102%
- RET AVG % Activity at Specific Concentration (RET; [6]): 100%
- RET AVG % Activity at Specific Concentration (RET; [7]): 0%
- RET AVG % Activity at Specific Concentration (RET; [8]): 20%
- RET AVG % Activity at Specific Concentration (RET; [9]): 75%
- RET AVG % Activity at Specific Concentration (RET; [10]): 94%
- RET AVG % Activity at Specific Concentration (RET; [11]): 97%
- RET AVG % Activity at Specific Concentration (RET; [12]): 99%
- RET Fold (RET): 23.02
- IC50 (c-Kit): 300 nM
- c-Kit AVG % Activity at Specific Concentration (c-Kit; [1]): −1%
- c-Kit AVG % Activity at Specific Concentration (c-Kit; [2]): 11%
- c-Kit AVG % Activity at Specific Concentration (c-Kit; [3]): 75%
- c-Kit AVG % Activity at Specific Concentration (c-Kit; [4]): 97%
- c-Kit AVG % Activity at Specific Concentration (c-Kit; [5]): 98%
- c-Kit AVG % Activity at Specific Concentration (c-Kit; [6]): 94%
- c-Kit AVG % Activity at Specific Concentration (c-Kit; [7]): −1%
- c-Kit AVG % Activity at Specific Concentration (c-Kit; [8]): 1%
- c-Kit AVG % Activity at Specific Concentration (c-Kit; [9]): 49%
- c-Kit AVG % Activity at Specific Concentration (c-Kit; [10]): 93%
- c-Kit AVG % Activity at Specific Concentration (c-Kit; [11]): 98%
- c-Kit AVG % Activity at Specific Concentration (c-Kit; [12]): 94%
- c-Kit Fold (c-Kit): 4.10
- IC50 (VEGFR-2): 430 nM
- VEGFR-2 AVG % Activity at Specific Concentration (VEGFR-2; [1]): −3%
- VEGFR-2 AVG % Activity at Specific Concentration (VEGFR-2; [2]): 24%
- VEGFR-2 AVG % Activity at Specific Concentration (VEGFR-2; [3]): 73%
- VEGFR-2 AVG % Activity at Specific Concentration (VEGFR-2; [4]): 85%
- VEGFR-2 AVG % Activity at Specific Concentration (VEGFR-2; [5]): 86%
- VEGFR-2 AVG % Activity at Specific Concentration (VEGFR-2; [6]): 86%
- VEGFR-2 AVG % Activity at Specific Concentration (VEGFR-2; [7]): −6%
- VEGFR-2 AVG % Activity at Specific Concentration (VEGFR-2; [8]): 2%
- VEGFR-2 AVG % Activity at Specific Concentration (VEGFR-2; [9]): 50%
- VEGFR-2 AVG % Activity at Specific Concentration (VEGFR-2; [10]): 78%
- VEGFR-2 AVG % Activity at Specific Concentration (VEGFR-2; [11]): 82%
- VEGFR-2 AVG % Activity at Specific Concentration (VEGFR-2; [12]): 84%
- VEGFR-2 Fold (VEGFR-2): 8.78

SMILES: COCCOCCOCCOCCOCCOCCOCCOCCOCCNC(=O)c1c(C)[nH]c(/C=C2\C(=O)Nc3ccc(F)cc32)c1C [mPEG9-semaxanib, (Z)-5-((5-fluoro-2-oxoindolin-3-ylidene)methyl)-2,4-dimethyl-1H-pyrrole-3-mPEG8-amide]
- IC50 (RET): 870 nM
- RET AVG % Activity at Specific Concentration (RET; [1]): 5%
- RET AVG % Activity at Specific Concentration (RET; [2]): 49%
- RET AVG % Activity at Specific Concentration (RET; [3]): 90%
- RET AVG % Activity at Specific Concentration (RET; [4]): 105%
- RET AVG % Activity at Specific Concentration (RET; [5]): 104%
- RET AVG % Activity at Specific Concentration (RET; [6]): 100%
- RET AVG % Activity at Specific Concentration (RET; [7]): 0%
- RET AVG % Activity at Specific Concentration (RET; [8]): 21%
- RET AVG % Activity at Specific Concentration (RET; [9]): 74%
- RET AVG % Activity at Specific Concentration (RET; [10]): 96%
- RET AVG % Activity at Specific Concentration (RET; [11]): 101%
- RET AVG % Activity at Specific Concentration (RET; [12]): 97%
- RET Fold (RET): 20.23
- IC50 (c-Kit): 390 nM
- c-Kit AVG % Activity at Specific Concentration (c-Kit; [1]): 0%
- c-Kit AVG % Activity at Specific Concentration (c-Kit; [2]): 16%
- c-Kit AVG % Activity at Specific Concentration (c-Kit; [3]): 90%
- c-Kit AVG % Activity at Specific Concentration (c-Kit; [4]): 102%
- c-Kit AVG % Activity at Specific Concentration (c-Kit; [5]): 105%
- c-Kit AVG % Activity at Specific Concentration (c-Kit; [6]): 95%
- c-Kit AVG % Activity at Specific Concentration (c-Kit; [7]): −1%
- c-Kit AVG % Activity at Specific Concentration (c-Kit; [8]): 2%
- c-Kit AVG % Activity at Specific Concentration (c-Kit; [9]): 60%
- c-Kit AVG % Activity at Specific Concentration (c-Kit; [10]): 100%
- c-Kit AVG % Activity at Specific Concentration (c-Kit; [11]): 105%
- c-Kit AVG % Activity at Specific Concentration (c-Kit; [12]): 102%
- c-Kit Fold (c-Kit): 5.30
- IC50 (VEGFR-2): 300 nM
- VEGFR-2 AVG % Activity at Specific Concentration (VEGFR-2; [1]): 1%
- VEGFR-2 AVG % Activity at Specific Concentration (VEGFR-2; [2]): 20%
- VEGFR-2 AVG % Activity at Specific Concentration (VEGFR-2; [3]): 61%
- VEGFR-2 AVG % Activity at Specific Concentration (VEGFR-2; [4]): 77%
- VEGFR-2 AVG % Activity at Specific Concentration (VEGFR-2; [5]): 84%
- VEGFR-2 AVG % Activity at Specific Concentration (VEGFR-2; [6]): 89%
- VEGFR-2 AVG % Activity at Specific Concentration (VEGFR-2; [7]): −1%
- VEGFR-2 AVG % Activity at Specific Concentration (VEGFR-2; [8]): 8%
- VEGFR-2 AVG % Activity at Specific Concentration (VEGFR-2; [9]): 46%
- VEGFR-2 AVG % Activity at Specific Concentration (VEGFR-2; [10]): 71%
- VEGFR-2 AVG % Activity at Specific Concentration (VEGFR-2; [11]): 84%
- VEGFR-2 AVG % Activity at Specific Concentration (VEGFR-2; [12]): 84%
- VEGFR-2 Fold (VEGFR-2): 6.12
